Results: ChEMBL document CHEMBL1649540, “The novel CXCR4 antagonist KRH-3955 is an orally bioavailable and extremely potent inhibitor of human immunodeficiency virus type 1 infection: comparative studies with AMD3100” (Antimicrob Agents Chemother, 2009)
Activity calls are given as the source filed them. The rule behind the calls is not given here.

Key:
[1] = test system: Human immunodeficiency virus 1; assay: Antiviral activity against HIV1 A018H infected in human PBMC assessed as inhibition of viral p24 antigen production after 7 to 10 days by ELISA; assay type: functional, organism-based; details: Human immunodeficiency virus 1, A018H
[2] = test system: Human immunodeficiency virus 1; assay: Antiviral activity against HIV1 JRCSF infected in human PBMC assessed as inhibition of viral p24 antigen production after 7 to 10 days by ELISA; assay type: functional; details: Human immunodeficiency virus 1, JRCSF ISOLATE
[3] = Volume of distribution at steady state in Sprague-Dawley rat at 10 mg/kg, iv administered as single dose; assay type: ADME, organism-based; set-up: dose 10 mg/kg, route intravenous; details: in vivo
[4] = test system: Human immunodeficiency virus 1; assay: Antiviral activity against HIV1 R5 infected in human PBMC assessed as inhibition of viral p24 antigen production after 7 to 10 days by ELISA; assay type: functional, organism-based; details: Human immunodeficiency virus 1, R5
[5] = test system: C-X-C chemokine receptor type 4 (Homo sapiens), P61073 [H113A]; details: HEK293
Sequence of C-X-C chemokine receptor type 4 (Homo sapiens), P61073 [H113A] (P61073 whole entry H113A): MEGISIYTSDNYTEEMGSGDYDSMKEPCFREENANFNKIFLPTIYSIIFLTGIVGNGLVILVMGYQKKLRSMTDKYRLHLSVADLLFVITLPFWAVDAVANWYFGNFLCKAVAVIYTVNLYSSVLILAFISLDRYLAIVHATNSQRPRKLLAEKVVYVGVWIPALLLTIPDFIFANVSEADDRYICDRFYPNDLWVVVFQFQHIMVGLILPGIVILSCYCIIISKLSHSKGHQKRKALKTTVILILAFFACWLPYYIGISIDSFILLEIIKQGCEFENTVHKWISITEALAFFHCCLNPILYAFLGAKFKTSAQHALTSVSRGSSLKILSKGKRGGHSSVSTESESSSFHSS

[6] = biological target: C-C chemokine receptor type 2 (Homo sapiens) (UniProt P41597); assay: Displacement of [125I]MCP1 form CCR2b expressed in CHO cells by scintillation counting; assay type: cell-based
Sequence of C-C chemokine receptor type 2 (Homo sapiens) (P41597 whole entry, looked up): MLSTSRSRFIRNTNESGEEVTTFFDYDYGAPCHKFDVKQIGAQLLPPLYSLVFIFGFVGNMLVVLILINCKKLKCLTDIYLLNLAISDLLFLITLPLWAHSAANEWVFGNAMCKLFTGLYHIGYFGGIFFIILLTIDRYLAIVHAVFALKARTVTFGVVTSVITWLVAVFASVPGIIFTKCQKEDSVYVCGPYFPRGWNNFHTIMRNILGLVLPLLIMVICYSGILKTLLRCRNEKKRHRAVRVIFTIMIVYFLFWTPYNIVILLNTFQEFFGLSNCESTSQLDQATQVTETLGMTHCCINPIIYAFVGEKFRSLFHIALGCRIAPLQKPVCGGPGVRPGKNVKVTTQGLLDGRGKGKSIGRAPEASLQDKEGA

[7] = test system: C-X-C chemokine receptor type 4 (Homo sapiens), P61073 [H203A]; assay: (§1) Inhibition of Mab 12G5 binding to CXCR4 H203A mutant expressed in HEK293 cells; assay type: cell-based
Sequence of C-X-C chemokine receptor type 4 (Homo sapiens), P61073 [H203A] (P61073 whole entry H203A): as the sequence (P61073 whole entry H113A) above, with A113H, H203A counted along it

[8] = biological target: C-X-C chemokine receptor type 4 (Homo sapiens, UniProt P61073, H203A); assay: as §1; assay type: cell-based
Sequence of C-X-C chemokine receptor type 4 (Homo sapiens, UniProt P61073, H203A) (P61073 whole entry H203A): as the sequence (P61073 whole entry H113A) above, with A113H, H203A counted along it

[9] = test system: Human immunodeficiency virus 1; assay: Antiviral activity against HIV1 NL4-3 infected in HEK293 cells assessed as inhibition of viral replication after 2 days; assay type: functional, organism-based; details: Human immunodeficiency virus 1, NL4-3, HEK293, 48 h
[10] = test system: C-X-C chemokine receptor type 4 (Homo sapiens), P61073 [V99A]; assay: (§2) Inhibition of Mab 12G5 binding to CXCR4 V99A mutant expressed in HEK293 cells; assay type: cell-based
Sequence of C-X-C chemokine receptor type 4 (Homo sapiens), P61073 [V99A] (P61073 whole entry V99A): as the sequence (P61073 whole entry H113A) above, with V99A, A113H counted along it

[11] = biological target: C-X-C chemokine receptor type 4 (Homo sapiens, UniProt P61073, V99A); assay: as §2; assay type: cell-based
Sequence of C-X-C chemokine receptor type 4 (Homo sapiens, UniProt P61073, V99A) (P61073 whole entry V99A): as the sequence (P61073 whole entry H113A) above, with V99A, A113H counted along it

[12] = biological target: T1, C-X-C chemokine receptor type 4 (Homo sapiens, UniProt P61073); assay: Inhibition of Mab 12G5 binding to CXCR4 expressed in human MOLT4 cells by FACS analysis; assay type: cell-based; details: MOLT-4
T1 sequence (P61073 whole entry): as the sequence (P61073 whole entry H113A) above, with A113H counted along it

[13] = biological target: T1, C-X-C chemokine receptor type 4; assay: Inhibition of Mab 12G5 binding to CXCR4 expressed in human MOLT4 cells at 10 nM by FACS analysis; assay type: cell-based; details: MOLT-4
[14] = test system: Human immunodeficiency virus 1; assay: Antiviral activity against HIV1 NL4-3 infected in human PBMC assessed as inhibition of viral p24 antigen production after 7 to 10 days by ELISA; assay type: functional, organism-based; details: Human immunodeficiency virus 1, NL4-3
[15] = test system: Human immunodeficiency virus 1; assay: Antiviral activity against HIV1 A018G infected in human PBMC assessed as inhibition of viral p24 antigen production after 7 to 10 days by ELISA; assay type: functional, organism-based; details: Human immunodeficiency virus 1, A018G
[16] = biological target: C-X-C chemokine receptor type 4 (Homo sapiens, UniProt P61073, D171A)
Sequence of C-X-C chemokine receptor type 4 (Homo sapiens, UniProt P61073, D171A) (P61073 whole entry D171A): as the sequence (P61073 whole entry H113A) above, with A113H, D171A counted along it

[17] = Half life in Sprague-Dawley rat at 10 mg/kg, iv administered as single dose; assay type: ADME, organism-based; set-up: dose 10 mg/kg, route intravenous; details: in vivo
[18] = biological target: C-X-C chemokine receptor type 4 (Homo sapiens, UniProt P61073, E288A/L290A)
Sequence of C-X-C chemokine receptor type 4 (Homo sapiens, UniProt P61073, E288A/L290A) (P61073 whole entry E288A/L290A): as the sequence (P61073 whole entry H113A) above, with A113H, E288A, L290A counted along it

[19] = test system: C-X-C chemokine receptor type 4 (Homo sapiens), P61073 [E288A,L290A]; details: HEK293
Sequence of C-X-C chemokine receptor type 4 (Homo sapiens), P61073 [E288A,L290A] (P61073 whole entry E288A/L290A): as the sequence (P61073 whole entry H113A) above, with A113H, E288A, L290A counted along it

[20] = biological target: T1, C-X-C chemokine receptor type 4; assay: Inhibition of Mab A80 binding to CXCR4 expressed in human MOLT4 cells by FACS analysis; assay type: cell-based; details: MOLT-4
[21] = test system: Human immunodeficiency virus 1; assay: Antiviral activity against multidrug resistant HIV1 HXB2 infected in HEK293 cells assessed as inhibition of viral replication after 2 days; assay type: functional, organism-based; details: Human immunodeficiency virus 1, HXB2, HEK293, 48 h
[22] = biological target: C-C chemokine receptor type 1 (Homo sapiens) (UniProt P32246); assay: Displacement of [125I]RANTES form CCR1 expressed in CHO cells by scintillation counting; assay type: cell-based
Sequence of C-C chemokine receptor type 1 (Homo sapiens) (P32246 whole entry): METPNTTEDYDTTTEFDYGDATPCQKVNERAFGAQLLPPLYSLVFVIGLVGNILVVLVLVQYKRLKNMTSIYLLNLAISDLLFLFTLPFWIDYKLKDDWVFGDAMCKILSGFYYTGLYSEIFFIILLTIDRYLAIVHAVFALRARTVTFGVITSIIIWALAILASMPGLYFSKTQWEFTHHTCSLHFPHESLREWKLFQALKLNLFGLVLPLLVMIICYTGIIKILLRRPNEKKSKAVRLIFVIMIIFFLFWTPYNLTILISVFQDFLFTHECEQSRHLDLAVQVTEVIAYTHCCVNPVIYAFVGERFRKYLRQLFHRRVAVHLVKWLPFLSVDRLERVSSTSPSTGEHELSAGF

[23] = biological target: C-X-C chemokine receptor type 1 (Homo sapiens) (UniProt P25024); assay: Displacement of [125I]IL8 form CXCR1 expressed in CHO cells by scintillation counting; assay type: cell-based
Sequence of C-X-C chemokine receptor type 1 (Homo sapiens) (P25024 whole entry): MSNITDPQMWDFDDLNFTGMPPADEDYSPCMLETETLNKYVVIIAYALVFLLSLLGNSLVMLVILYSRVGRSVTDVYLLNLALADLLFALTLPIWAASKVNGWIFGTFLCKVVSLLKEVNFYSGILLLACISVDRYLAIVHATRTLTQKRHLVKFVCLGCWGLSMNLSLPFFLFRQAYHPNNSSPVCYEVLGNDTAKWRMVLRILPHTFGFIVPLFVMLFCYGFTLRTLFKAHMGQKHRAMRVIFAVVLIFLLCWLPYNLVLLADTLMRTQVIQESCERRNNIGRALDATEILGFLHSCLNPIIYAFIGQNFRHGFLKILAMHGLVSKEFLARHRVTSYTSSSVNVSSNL

[24] = biological target: T1, C-X-C chemokine receptor type 4; assay: Inhibition of Mab 12G5 binding to CXCR4 expressed in human MOLT4 cells at 10 nM measured after 6 hrs post drug washout by FACS analysis; assay type: cell-based; details: MOLT-4
[25] = Cmax in Sprague-Dawley rat at 10 mg/kg, po administered as single dose; assay type: ADME, organism-based; set-up: dose 10 mg/kg, route oral; details: in vivo
[26] = test system: C-X-C chemokine receptor type 4 (Homo sapiens), P61073 [V112A]; assay: (§3) Inhibition of Mab 12G5 binding to CXCR4 V112A mutant expressed in HEK293 cells; assay type: cell-based
Sequence of C-X-C chemokine receptor type 4 (Homo sapiens), P61073 [V112A] (P61073 whole entry V112A): as the sequence (P61073 whole entry H113A) above, with V112A, A113H counted along it

[27] = biological target: C-X-C chemokine receptor type 4 (Homo sapiens, UniProt P61073, V112A); assay: as §3; assay type: cell-based
Sequence of C-X-C chemokine receptor type 4 (Homo sapiens, UniProt P61073, V112A) (P61073 whole entry V112A): as the sequence (P61073 whole entry H113A) above, with V112A, A113H counted along it

[28] = biological target: T1, C-X-C chemokine receptor type 4; assay: Antagonist activity at CXCR4 expressed in CHO cells assessed as inhibition of SDF1-alpha-induced calcium mobilization by fluorescence assay; assay type: functional, cell-based
[29] = test system: Human immunodeficiency virus 1; assay: Antiviral activity against NRTI-resistant HIV1 HXB2 infected in HEK293 cells assessed as inhibition of viral replication after 2 days; assay type: functional, organism-based; details: Human immunodeficiency virus 1, HXB2, HEK293, 48 h
[30] = biological target: T1, C-X-C chemokine receptor type 4; assay: Inhibition of Mab 44717 binding to CXCR4 expressed in human MOLT4 cells by FACS analysis; assay type: cell-based; details: MOLT-4
[31] = biological target: T1, C-X-C chemokine receptor type 4; assay: Displacement of [125I]SDF-1alpha form CXCR4 expressed in CHO cells by scintillation counting; assay type: cell-based
[32] = biological target: C-X-C chemokine receptor type 4 (Homo sapiens, UniProt P61073, H113A)
Sequence of C-X-C chemokine receptor type 4 (Homo sapiens, UniProt P61073, H113A) (P61073 whole entry H113A): as the sequence (P61073 whole entry H113A) above

[33] = test system: Human immunodeficiency virus 1; assay: Antiviral activity against T20-resistant HIV1 NL4-3 infected in HEK293 cells assessed as inhibition of viral replication after 2 days; assay type: functional, organism-based; details: Human immunodeficiency virus 1, NL4-3, HEK293, 48 h
[34] = Oral bioavailability in Sprague-Dawley rat at 10 mg/kg administered as single dose; assay type: ADME, organism-based; details: in vivo
[35] = test system: Human immunodeficiency virus 1; assay: Antiviral activity against HIV1 HXB2 infected in HEK293 cells assessed as inhibition of viral replication after 2 days; assay type: functional, organism-based; details: Human immunodeficiency virus 1, HXB2, HEK293, 48 h
[36] = biological target: C-X-C chemokine receptor type 4 (Homo sapiens, UniProt P61073, E275A); assay: (§4) Inhibition of Mab 12G5 binding to CXCR4 E275A mutant expressed in HEK293 cells; assay type: cell-based
Sequence of C-X-C chemokine receptor type 4 (Homo sapiens, UniProt P61073, E275A) (P61073 whole entry E275A): as the sequence (P61073 whole entry H113A) above, with A113H, E275A counted along it

[37] = test system: C-X-C chemokine receptor type 4 (Homo sapiens), P61073 [E275A]; assay: as §4; assay type: cell-based
Sequence of C-X-C chemokine receptor type 4 (Homo sapiens), P61073 [E275A] (P61073 whole entry E275A): as the sequence (P61073 whole entry H113A) above, with A113H, E275A counted along it

[38] = test system: Human immunodeficiency virus 1; assay: Antiviral activity against NNRTI-resistant HIV1 HXB2 infected in HEK293 cells assessed as inhibition of viral replication after 2 days; assay type: functional, organism-based; details: Human immunodeficiency virus 1, HXB2, HEK293, 48 h
[39] = AUC (0 to 336 hrs) in Sprague-Dawley rat at 10 mg/kg, po administered as single dose; assay type: ADME, organism-based; set-up: time < 336 hr, dose 10 mg/kg, route oral; details: plasma
[40] = biological target: C-X-C chemokine receptor type 4 (Homo sapiens, UniProt P61073, E277A)
Sequence of C-X-C chemokine receptor type 4 (Homo sapiens, UniProt P61073, E277A) (P61073 whole entry E277A): as the sequence (P61073 whole entry H113A) above, with A113H, E277A counted along it

CCCN(CCC)CCCCN(C)Cc1ccc(CN(Cc2ncc[nH]2)Cc2nccn2C)cc1.O=C(O)C(O)C(O)C(=O)O
EC50 [1]: 1.4 nM
EC50 [2]: > 200 nM
Vd [3]: 374 L/kg
EC50 [4]: > 200 nM
IC90 [5]: 6.3 nM
Activity [6]: inactive
IC90 [7]: 5.3 nM
IC50 [8]: 0.5 nM
IC50 [9]: 0.5 nM
IC90 [10]: 7.4 nM
IC50 [11]: 1.5 nM
inhibition [12]: Dose-dependent effect
inhibition [13]: Active
EC50 [14]: 1.1 nM
EC50 [15]: 1.3 nM
IC50 [16]: 3.2 nM
half-life [17]: 99 h
IC50 [18]: 1.6 nM
IC90 [19]: 7.7 nM
inhibition [20]: Dose-dependent effect
IC50 [21]: 0.7 nM
Activity [22]: inactive
Activity [23]: inactive
inhibition [24]: 40%
Cmax [25]: 86.3 ng/mL
IC90 [26]: > 10 nM
IC50 [27]: 2.2 nM
inhibition [28]: Dose-dependent effect
IC50 [29]: 0.6 nM
inhibition [30]: Dose-dependent effect
Activity [31]: Dose-dependent effect
IC50 [31]: 0.61 nM
IC50 [32]: 0.8 nM
IC50 [33]: 0.4 nM
bioavailability [34]: 25.6%
IC50 [35]: 0.6 nM
IC50 [36]: 1 nM
IC90 [37]: 6.4 nM
IC50 [38]: 0.8 nM
AUC(0-t) at 336 h [39]: 325 ng·h/mL
IC50 [40]: 3.1 nM
